Active and inactive are the calls of the source.
Experiments:
[1] = target: T1, Replicative DNA helicase DnaB (Mycobacterium tuberculosis, UniProt P9WMR3); assay: DnaB intein splicing inhibitors, dose response, biochemical, cell-free fluorescence (AID 449749); type: functional
T1 sequence (P9WMR3 whole entry): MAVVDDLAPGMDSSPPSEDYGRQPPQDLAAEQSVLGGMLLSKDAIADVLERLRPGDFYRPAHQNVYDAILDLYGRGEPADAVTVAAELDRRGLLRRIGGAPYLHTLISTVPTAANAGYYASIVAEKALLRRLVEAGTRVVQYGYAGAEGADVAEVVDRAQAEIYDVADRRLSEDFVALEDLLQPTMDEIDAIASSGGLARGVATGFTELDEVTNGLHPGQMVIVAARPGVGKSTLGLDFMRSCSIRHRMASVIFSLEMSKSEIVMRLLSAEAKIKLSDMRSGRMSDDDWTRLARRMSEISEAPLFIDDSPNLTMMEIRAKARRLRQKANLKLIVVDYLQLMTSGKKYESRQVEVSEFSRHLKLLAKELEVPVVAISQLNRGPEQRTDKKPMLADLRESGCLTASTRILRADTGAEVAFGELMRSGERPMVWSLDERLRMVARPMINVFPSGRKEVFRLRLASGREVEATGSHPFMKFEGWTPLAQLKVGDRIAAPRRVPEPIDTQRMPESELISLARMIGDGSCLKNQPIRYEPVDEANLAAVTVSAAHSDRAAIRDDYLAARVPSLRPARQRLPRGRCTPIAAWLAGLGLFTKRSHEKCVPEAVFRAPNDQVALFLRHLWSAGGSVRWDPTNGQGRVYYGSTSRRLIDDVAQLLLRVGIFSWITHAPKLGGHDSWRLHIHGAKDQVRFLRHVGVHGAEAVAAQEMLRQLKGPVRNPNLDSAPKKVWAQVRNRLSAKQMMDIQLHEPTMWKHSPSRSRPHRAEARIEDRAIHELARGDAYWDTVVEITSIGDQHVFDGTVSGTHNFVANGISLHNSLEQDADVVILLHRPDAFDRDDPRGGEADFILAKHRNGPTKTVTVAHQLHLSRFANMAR

Protein RecA = target: T2, Protein RecA (Mycobacterium tuberculosis, UniProt P9WHJ3); assay: Fluorescence Cell-Free Homogeneous Dose Retest to Identify Inhibitors of RecA-Intein Splicing Activity. [Related pubchem assays (depositor defined):AID2097, AID2223, AID489010, AID492950]; type: functional
T2 sequence (P9WHJ3 whole entry): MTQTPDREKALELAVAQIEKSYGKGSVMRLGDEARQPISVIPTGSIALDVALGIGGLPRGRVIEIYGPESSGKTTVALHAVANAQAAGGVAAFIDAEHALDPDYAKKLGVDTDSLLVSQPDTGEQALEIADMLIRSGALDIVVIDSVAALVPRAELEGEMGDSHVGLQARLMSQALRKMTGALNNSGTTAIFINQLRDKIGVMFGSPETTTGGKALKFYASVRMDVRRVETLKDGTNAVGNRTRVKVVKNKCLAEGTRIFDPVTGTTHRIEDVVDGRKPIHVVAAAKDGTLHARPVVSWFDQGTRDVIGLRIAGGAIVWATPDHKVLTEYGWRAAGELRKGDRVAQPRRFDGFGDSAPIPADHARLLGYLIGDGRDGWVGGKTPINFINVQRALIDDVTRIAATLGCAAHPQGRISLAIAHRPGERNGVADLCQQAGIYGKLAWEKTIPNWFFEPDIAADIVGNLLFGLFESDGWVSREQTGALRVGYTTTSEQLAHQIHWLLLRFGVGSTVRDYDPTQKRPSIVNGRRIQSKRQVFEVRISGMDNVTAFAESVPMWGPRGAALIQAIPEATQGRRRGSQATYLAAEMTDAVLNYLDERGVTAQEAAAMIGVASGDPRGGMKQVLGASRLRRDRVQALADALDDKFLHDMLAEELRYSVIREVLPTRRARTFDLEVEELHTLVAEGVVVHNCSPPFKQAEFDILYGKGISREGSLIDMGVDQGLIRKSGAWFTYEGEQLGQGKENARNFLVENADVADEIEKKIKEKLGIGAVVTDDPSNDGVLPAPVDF

[2] = LGR2 antagonists, dose response, cell-based, HEK293, CRE-luciferase reporter, cherry pick, set 2 (AID 743343); type: functional;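 further: transfected cells were stimulated with diluted bursicon conditioned medium after compound addition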
[3] = NIH-3T3 fibroblast cytotoxicity, dose response, cytotoxicity control, cell-based, fluorescence, Alamar Blue, secondary assay (AID 2327); type: functional;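 further: NIH-3T3 mouse fibroblasts cultured with fluconazole at 8 µg/mL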
cells [4] = type: functional, cell-based
cells [5] = type: functional, cell-based; remark: listed apart in the source
Streptococcus = assay: Group A Streptococcus viability loss, dose response, counter-screen for streptokinase expression inhibitor project, luminescence, BacTiterGlo (AID 1915); type: functional, organism-based;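 further: potency for reduction of bacterial viability or growth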
INS1 = assay: beta cell apoptosis inhibitors, cytokine rescue, dose response, luminescence, retest (AID 449756); type: functional, cell-based; conditions: Rattus norvegicus;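 further: cell death triggered by IL-1 beta plus TNF-alpha plus IFN-gamma mixture; protective hits raise ATP signal compared with cytokine alone wells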
[6] = target: Serine/threonine-protein phosphatase (Homo sapiens, UniProt Q9BPW0); assay: PP5 phosphatase inhibitors, dose response, biochemical, fluorescence (AID 2395)
[7] = target: T3, Rac GTPase-activating protein 1 (Homo sapiens, UniProt Q9H0H5); assay: MgcRacGAP GTPase-activating activity inhibitors, confirmation, biochemical, ADP Hunter fluorescence, primary and confirmatory (AID 624330); type: functional
T3 sequence (Q9H0H5 whole entry): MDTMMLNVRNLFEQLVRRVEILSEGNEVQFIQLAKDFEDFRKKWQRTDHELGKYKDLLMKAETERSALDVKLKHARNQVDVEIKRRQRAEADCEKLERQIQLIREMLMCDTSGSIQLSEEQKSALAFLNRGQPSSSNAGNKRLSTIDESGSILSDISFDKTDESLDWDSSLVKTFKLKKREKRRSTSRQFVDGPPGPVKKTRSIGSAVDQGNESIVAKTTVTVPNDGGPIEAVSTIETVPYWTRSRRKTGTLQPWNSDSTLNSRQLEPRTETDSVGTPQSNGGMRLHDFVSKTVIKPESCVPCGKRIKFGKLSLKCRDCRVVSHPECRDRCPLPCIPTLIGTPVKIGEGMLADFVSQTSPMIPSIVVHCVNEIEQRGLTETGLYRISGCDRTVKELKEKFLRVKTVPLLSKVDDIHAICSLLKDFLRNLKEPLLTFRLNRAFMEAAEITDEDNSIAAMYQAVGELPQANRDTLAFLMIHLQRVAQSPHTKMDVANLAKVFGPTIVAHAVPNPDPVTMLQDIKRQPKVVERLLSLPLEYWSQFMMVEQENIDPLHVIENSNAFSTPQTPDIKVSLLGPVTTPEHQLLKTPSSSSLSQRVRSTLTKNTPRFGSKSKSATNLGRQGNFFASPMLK

Serine/threonine-protein phosphatase, sequence (Q9BPW0 whole entry): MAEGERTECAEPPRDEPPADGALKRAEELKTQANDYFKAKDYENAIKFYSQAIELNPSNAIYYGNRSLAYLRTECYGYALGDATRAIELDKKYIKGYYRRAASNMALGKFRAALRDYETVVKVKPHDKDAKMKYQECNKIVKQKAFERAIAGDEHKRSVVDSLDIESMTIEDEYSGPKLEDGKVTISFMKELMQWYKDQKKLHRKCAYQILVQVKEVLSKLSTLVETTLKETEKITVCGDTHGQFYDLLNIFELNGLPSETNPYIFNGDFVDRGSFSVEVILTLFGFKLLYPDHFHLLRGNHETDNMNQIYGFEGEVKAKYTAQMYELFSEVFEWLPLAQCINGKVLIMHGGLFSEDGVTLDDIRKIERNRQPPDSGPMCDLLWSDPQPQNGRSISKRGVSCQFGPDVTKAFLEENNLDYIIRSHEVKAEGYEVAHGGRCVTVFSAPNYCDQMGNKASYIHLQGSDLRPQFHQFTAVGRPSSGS

## COc1cc(NC(=O)Cn2ncc(Cl)c(Cl)c2=O)c(C)cc1[N+](=O)[O-]
[1]
  AC50: 26.6 µM (active)
Protein RecA
  EC50: 8.7 µM (active)
[2]
  AC50: 23.2 µM (active)

## Cc1ccc(C)c(S(=O)(=O)N2CCN(Cc3ccc(O)c4ncccc34)CC2)c1
[3]
  EC50: 81.5 µM (active)
Cells [4]
  EC50: 7.58 µM (active)
Cells [5]
  EC50: > 350 µM (not active)
Streptococcus
  EC50: 15 µM (active)
INS1
  AC50: 2.48 µM (active)

## Oc1ccc(/C=N\Nc2cc(N3CCOCC3)nc(N3CCOCC3)n2)c(O)c1
[6]
  IC50: 5.72 µM (active)
[7]
  IC50: 57.1 µM (active)
